Data set [1] deals with Liver. Nature of the data set: Glucuronidation metabolism in dog liver microsomes assessed as compound remaining. In kind it is ADME, Canis lupus familiaris, Microsome. A general note: Liver microsomes are vesicles of endoplasmic reticulum, rich in cytochrome P450 enzymes.
Data set [2] has as its system Liver microsomes. Briefly: Oxidative metabolism in rat liver microsomes assessed as compound remaining. Type of data set: ADME, Microsome.
Data set [3] has as its system Liver microsomes. Briefly: Oxidative metabolism in human liver microsomes assessed as compound remaining. Type of data set: ADME, Microsome.
Data set [4] concerns the target Gamma-secretase. Briefly: Inhibition of partially purified human gamma-secretase-mediated cleavage of MBP-APPc125Sw fusion protein measured after overnight incubation by ELISA. Type of data set: protein-complex assay. A general note: In an ELISA, binding on a coated surface is turned into a signal by an enzyme label.
Data set [5] addresses Gamma-secretase. Nature of the data set: Inhibition of partially purified human gamma-secretase-mediated cleavage of notch fusion protein measured after overnight incubation by ELISA. Type of data set: protein-complex assay.
For data set [6], the system named is Liver microsomes. Nature of the data set: Glucuronidation metabolism in rat liver microsomes assessed as compound remaining. In kind it is ADME, Microsome.
The subject of data set [7] is CHO. Briefly: Inhibition of gamma-secretase in CHO cells assessed expressing NotchdeltaE assessed as inhibition of notch cleavage after overnight incubation by luciferase reporter gene assay. Type of data set: cell-based. Conditions: Cricetulus griseus. For orientation: A reporter such as luciferase makes a cellular process visible.
Data set [8] deals with Liver. Nature of the data set: Glucuronidation metabolism in mouse liver microsomes assessed as compound remaining. Type of data set: ADME, Microsome.
Data set [9] deals with Liver. Briefly: Oxidative metabolism in mouse liver microsomes assessed as compound remaining. Type of data set: ADME, Microsome.
In data set [10] the target is Gamma-secretase (Homo sapiens) (UniProt Q96BI3+Q9NZ42+Q8WW43+P49768+Q92542+P49810). Nature of the data set: Selctivity ratio of IC50 for partially purified human gamma-secretase-mediated cleavage of notch fusion protein to IC50 for partially purified human gamma-secretase-mediated cleavage of MBP-APPc125Sw fusion protein. In kind it is protein-complex assay.
The test system of data set [11] is Mus musculus. Nature of the data set: Reduction in amyloid beta (x to 40) in FVB mouse cortex at 30 mg/kg, po administered as single dose measured at 3 hrs. In kind it is functional. Also on record: scale not given: the % may be the effect or the level left.
Data set [12] concerns Mus musculus. Nature of the data set: Reduction in amyloid beta (x to 40) in FVB mouse cortex at 10 mg/kg, po administered as single dose measured at 3 hrs. In kind it is functional. Also on record: scale not given: the % may be the effect or the level left.
For data set [13], the system named is Liver. Nature of the data set: Oxidative metabolism in dog liver microsomes assessed as compound remaining. In kind it is ADME, Canis lupus familiaris, Microsome.
For data set [14], the system named is Mus musculus. Briefly: Reduction in amyloid beta (x to 40) in FVB mouse cortex at 3 mg/kg, po administered as single dose measured at 3 hrs. Type of data set: functional. On the set-up: scale not given: the % may be the effect or the level left.
The test system of data set [15] is Liver microsomes. Nature of the data set: Glucuronidation metabolism in human liver microsomes assessed as compound remaining. Type of data set: ADME, Microsome.
Data set [16] has as its system CHO. Nature of the data set: Inhibition of gamma-secretase in CHO cells assessed expressing APPSw assessed as inhibition of amyloid beta(1 to x) secretion after overnight incubation by ELISA. In kind it is cell-based. Conditions: Cricetulus griseus.
Data set [17] concerns CHO. Briefly: Selctivity ratio of ED50 for gamma-secretase in CHO cells assessed expressing NotchdeltaE assessed as inhibition of notch cleavage to ED50 for gamma-secretase in CHO cells assessed expressing APPSw assessed as inhibition of amyloid beta(1 to x) secretion. Type of data set: cell-based. Conditions: Cricetulus griseus.
Data set [18] relates to Mus musculus. Briefly: Reduction in amyloid beta (x to 40) in FVB mouse cortex at 1 mg/kg, po administered as single dose measured at 3 hrs. Type of data set: functional. On the set-up: scale not given: the % may be the effect or the level left.

Molecules are shown by their SMILES.

What is called IC50 is the concentration that inhibits the measured activity by half. `CC(C)[C@H](O)C(=O)N[C@@H](C)C(=O)N[C@@H]1C(=O)N(C)CCc2ccccc21` [SEMAGACESTAT]: the Stability in the data set with Liver [1] worked out at 96%; in the data set on Liver microsomes [2] it was 87%; with Liver microsomes [3] it was 92%; in the data set on Liver microsomes [6], 92%; with Liver [8], 88%; in the data set on Liver [9], 100%. Further, the Stability in the data set on Liver [13] was found to be 100%; with Liver microsomes [15], 93%. For the same compound, the IC50 at Gamma-secretase [4] stood at 7.9 nM; at Gamma-secretase [5] it was 3.2 nM. Further, the values for the ED50 in the data set with CHO [7] and with CHO [16] were 220 nM and 15 nM, respectively. Further, the Ratio IC50 in data set [10] came to 0.41. Besides, the Activity in the data set with Mus musculus [11] worked out at 47%; in the data set with Mus musculus [12], 31%; in the data set on Mus musculus [14], 19%; in the data set with Mus musculus [18], 5%. For the same compound, the Ratio ED50 in the data set with CHO [17] turned out to be 15.

Values taken from ChEMBL document CHEMBL2396560, “Discovery of (R)-4-cyclopropyl-7,8-difluoro-5-(4-(trifluoromethyl)phenylsulfonyl)-4,5-dihydro-1H-pyrazolo[4,3-c]quinoline (ELND006) and (R)-4-cyclopropyl-8-fluoro-5-(6-(trifluoromethyl)pyridin-3-ylsulfonyl)-4,5-dihydro-2H-pyrazolo[4,3-c]quinoline (ELND007): metabolically stable γ-secretase …” (J Med Chem, 2013).
